Tests used:
NMDA [1] = conditions: Berry et al, Eur. J. Pharm., 96, 261-267 (1983); spinal neurones; cited from earlier work
[2] = test system: [^3 H]PCP binding sites, rat cerebral cortical membranes; conditions: Goldman et al, FEBS Lett., 170, 333-336 (1985); cited from earlier work
hippocampal neurons [3] = assay: Chronic hypoxic insult assay (MTT neuronal survival); format: cell-based, Sprague-Dawley rats
Protocol: Compound No. 1 was tested for its ability to protect hippocampal neurons from hypoxia-induced cell death. Cultures of hippocampal neurons were prepared from embryonic day 17 Sprague-Dawley rats. The hippocampi were dissociated into a single cell suspension by incubation with 0.25% trypsin, 40 mg/ml DNase followed by gentle trituration through a Pasteur pipet. The cells were plated in a polylysine-coated 96-well plate and maintained in a chemically defined medium until use. The cells were grown for 2 to 3 weeks in 5% CO2 -in-air humidified environment at 36° C. to establish a thick network of neuronal processes with numerous spontaneously active synapses. […] Following 2 hours of exposure to normal O2 tension, the cultures were processed for morphological and quantitive biochemical neuronal cell viability assays.
The neuronal survival assay utilized the compound MTT [(3-(4,5-dimethylthiazol-2-yl)-2,5-diphenyl tetrazolium bromide)], a pale yellow substrate that is cleaved by the mitochondrial enzyme succinate-dehydrogenase to yield a dark blue formazan product. […] The precipitate was then solubilized using 0.08N HCl/isopropanol mixture and the absorbance measured with an ELISA plate reader (Dynatech MR600) using a test wavelength of 570 nm and a reference wavelength of 630 nm. […]

hippocampal neurons [4] = assay: Acute azide toxicity assay (MTT neuronal survival); format: cell-based, Sprague-Dawley rats
hippocampal neurons [5] = assay: Glutamate neurotoxicity assay (MTT neuronal survival); format: cell-based, Sprague-Dawley rats; conditions: for Protection from glutamate toxicity: 500 μM glutamate, 1 hour; for Optical Density (MTT, viable cells): units + SDM, 500 μM glutamate 1 hour, control 0.163, glutamate 0.092
Protocol: Compound No. 1 was tested for its ability to protect hippocampal neurons from hypoxia-induced cell death. Cultures of hippocampal neurons were prepared from embryonic day 17 Sprague-Dawley rats. The hippocampi were dissociated into a single cell suspension by incubation with 0.25% trypsin, 40 mg/ml DNase followed by gentle trituration through a Pasteur pipet. The cells were plated in a polylysine-coated 96-well plate and maintained in a chemically defined medium until use. The cells were grown for 2 to 3 weeks in 5% CO2 -in-air humidified environment at 36° C. to establish a thick network of neuronal processes with numerous spontaneously active synapses. Exposure to hypoxic/anoxic environment was accomplished by placing the cultures in an anaerobic chamber, and flushing it with a mixture of 95% N2 +5% CO2 gas to rapidly drop the O2 tension to near zero. The O2 tension was maintained at near zero using a disposable H2 +CO2 generator envelope with palladium catalyst. Compound No. 1 was added to the culture medium prior to incubation in the anaerobic chamber and maintained there for 6 hours. Following 2 hours of exposure to normal O2 tension, the cultures were processed for morphological and quantitive biochemical neuronal cell viability assays.
The neuronal survival assay utilized the compound MTT [(3-(4,5-dimethylthiazol-2-yl)-2,5-diphenyl tetrazolium bromide)], a pale yellow substrate that is cleaved by the mitochondrial enzyme succinate-dehydrogenase to yield a dark blue formazan product. This process requires active mitochondria, present only in live cells. Cultures of hippocampal neurons grown in 96-well plates were incubated with 1 mg/ml MTT at 36° C. in a 10% CO2 -in-air incubator for 30-60 min. At the end of the incubation, a dark blue precipitate outlined only viable cells. The precipitate was then solubilized using 0.08N HCl/isopropanol mixture and the absorbance measured with an ELISA plate reader (Dynatech MR600) using a test wavelength of 570 nm and a reference wavelength of 630 nm. The resulting optical density is directly proportional to the number of viable cells.
Compound No. 1 was tested for its ability to protect neurons from glutamate-induced neurotoxicity, which selectively kills mature neurons while sparing glial cells. Neuronal cells were prepared and cell viability assays were performed as described in the chronic hypoxia insult assay, above.
Hippocampal cultures were exposed to 500 μM glutamate for 1 hour either in the presence or absence of Compound No. 1 and immediately thereafter processed for qualitative (morphological) and quantitative viability assay.

NMA = assay: NMDA/KA antagonist assay in embryo retina: blocking NMA neurotoxicity; set-up: species or system chick embryo; conditions: NMA 200 μM, 30 min, 37° C.
Protocol: (§1) A 15-day old chick embryo retina, incubated for 30 min. in a balanced salt solution (BSS) containing 1 mM Glu, developed a full lesion characteristic of an immature mouse retina following s.c. administration of Glu. Other excitotoxin agonists also produce acute lesions within 30 min., each agent being effective at a concentration proportional to its known excitatory and toxic potencies. The pattern of cellular degeneration is restricted in each case to the ganglion cell, inner plexiform and inner nuclear layers, but within these areas certain agonists induce different patterns of degeneration, the differences being most pronounced between NMA and KA. Four agonists were employed in the present test, each at a concentration established previously to be the lowest concentration required to consistently cause a fully-developed retinal lesion: KA (25 μM), Quis (50 μM), NMA (200 μM) and Glu (1000 μM). Compound No. 1 and other PCP-like compounds were tested at various concentrations for their ability to prevent KA, Quis, NMA or Glu neurotoxicity. […] Internal controls in each experiment consisted of at least six specimens being incubated with agonist alone. A typical toxic reaction had to be present in all controls and absent from all experimental specimens in order to qualify as a blocking effect. The method of tissue preparation was as follows: 15-day old chick embryos were decapitated and their eyes removed and cut into quadrants after excising the cornea and removing the lens, vitreous and iris. The retinal quadrants were then gently separated from the pigment epithelium and incubated for 30 min. at 37° C. in BSS to which an agonist or agonist plus antagonist was added. The BSS contained 140 mMNa^+, 5.0 mM K^+, 0.5 mM Ca^++, 4.5 mM Mg^++, 150 mM Cl^-, 5.6 mM glucose and bicarbonate/phosphate buffer (pH 7.3). […]

KA = assay: NMDA/KA antagonist assay in embryo retina: blocking KA neurotoxicity; set-up: species or system chick embryo; conditions: KA 25 μM, 30 min, 37° C.; tested from 1000 μM downward
Protocol: as §1

Quis = assay: NMDA/KA antagonist assay in embryo retina: blocking Quis neurotoxicity; set-up: species or system chick embryo; conditions: Quis 50 μM, 30 min, 37° C.; footnote: @ up to 500 μM
Protocol: as §1

rats = assay: Behavioral assay, stereotyped behavior in rats; format: in vivo, Male Sprague-Dawley rats; conditions: for Stereotyped Behavior ED50: i.c.v., at time of maximal behavioral effect, parentheses: 95% confidence intervals
Protocol: Compound No. 1 was tested in comparison with PCP and TCP by an in vivo assay which determined stereotypic behavior in rats treated with the compounds. Male Sprague-Dawley rats weighing 200 to 250 g were used in the behavioral experiments. Each rat was used only once. Rats were anesthetized lightly with ether before a 20-gauge needle was used to make a hole in the rat's skull for i.c.v. injection of drugs at a later date. The rats were allowed to recover for at least 1 day before being used in the behavioral assays. On the day of the experiment, rats were placed individually into plastic rat cages and allowed at least 1 hr to acclimate before testing. Drugs were administered to rats in a random, single-blind fashion. Behavioral ratings were taken at 5-min intervals up to 1 hr after drug administration i.c.v. using the PCP rating scale as described by Sturgeon et al [Sturgeon, R. D., Fessler, R. G. and Meltzer, H. Y., "Behavioral Rating Scales for Accessing Phencyclidine-Induced Locomotor Activity, Stereotyped Behavior And Ataxia In Rats", European J. Pharmacol. 59 169, (1970)].
Dose-response curves for each treatment were determined at the time of maximal behavioral effect. Peak effects were found 5 min after i.c.v. administration of PCP (25-20000 nmol/rat). […] A rating of 5 in the PCP-rating scale was considered as complete stereotyped behavior, that is, a 100% response. At least 21 rats (at least seven rats/dose) were used to determine each dose-response curve and EDso values. ED50 values and dose-response curves were evaluated using a computerized Finney assay [Statistical Methods In Biological Assays, 2nd Edn., Hatner Pub. Co., New York (1964)].
The ability of the tested compounds to induce stereotyped behavior was assessed at 2.5, 5 and 10 minutes and thereafter every 5 min up to 1 hr after i.c.v., i.p., or s.c. administration.

PCP receptors = assay: Radioreceptor assay, displacement of 3H-TCP from rat brain membranes; conditions: read-out: Ki apparent; units + SEM; 1 nM 3H-TCP, whole rat brain membranes, 1 hour incubation
NMDA [6] = conditions: Anis et al, Br. J. Pharmacol., 79, 565 (1983); cited from earlier work

CC1CCCN(C2(c3ccccc3)CCCCC2)C1 (single isomer, unassigned; (+)) [(+)-PCMP, (+)-1-(1-phenylcyclohexyl)-3-methylpiperidine]
Stereoselective effects over isomer counterpart in reducing the excitatory action of NMDA (NMDA [1]): confirmed
Inhibition of specific binding of [^3 H]PCP [2]: potent inhibitor

C1=CCN(C2(c3cccs3)CCCCC2)CC1 [Compound No. 1, 1-[1-(2-thienyl)-cyclohexyl]-1,2,5,6-tetrahydropyridine]
EC (maximum protection) (hippocampal neurons [3]; Rattus norvegicus, Hippocampal neuron, hypoxia 6 hours, read-out: Concentration giving maximum protection of neurons from hypoxic insult): 50 µM
Optical Density (MTT, viable cells) (hippocampal neurons [3]; units + SDM, hypoxia + 50 μM compound, 6 hours, untreated control 0.163, hypoxia 0.062): 0.173 ± .033
Protection of neurons from sodium azide poisoning (hippocampal neurons [4]; 1 μM compound, 10 μM sodium azide, 1 hour): significant protection
Optical Density (MTT, viable cells) (hippocampal neurons [4]; units + SDM, sodium azide 1 hour + 1 μM compound, control 0.146, sodium azide 0.084): 0.138 ± .013
Protection from glutamate toxicity (hippocampal neurons [5]; 5 μM compound): significant protection
Protection from glutamate toxicity (hippocampal neurons [5]; 50 μM compound): Nearly complete protection
Optical Density (MTT, viable cells) (hippocampal neurons [5]; 5 μM compound): 0.147 ± .017
Optical Density (MTT, viable cells) (hippocampal neurons [5]; 50 μM compound): 0.157 ± .017
Minimal concentration required to provide total protection vs NMA (NMA): 0.25 µM
Protection vs KA (KA): Partial @ 5 μM
Protection vs Quis (Quis): Zero @ 250 μM
Stereotyped Behavior ED50 (rats): 43 (34-57) nmol/rat
Ki (PCP receptors): 12 ± 2 nM

S=C=Nc1cccc(C2(N3CCCCC3)CCCCC2)c1 [Metaphit, 1-[1-(3-isothiocyanatophenyl)cyclohexyl]piperidine]
Minimal concentration required to provide total protection vs NMA (NMA): 50 µM
Protection vs KA (KA): No Activity
Protection vs Quis (Quis): No Activity

c1ccc(C2(N3CCCCC3)CCCCC2)cc1 [PCP, Phencyclidine]
Minimal concentration required to provide total protection vs NMA (NMA): 1 µM
Protection vs KA (KA): No Activity
Protection vs Quis (Quis): No Activity
Time of peak behavioral effect (rats; after i.c.v. administration, 25-20000 nmol/rat): 5 min
Time of peak behavioral effect (rats; after i.p. administration, 2.0-32 mg/kg): 15 min
Stereotyped Behavior ED50 (rats): 150 (120-180) nmol/rat
Reduction of the excitatory effects of NMDA as compared to KA and QUIS (NMDA [6]): reduce selectively the excitatory effects of NMDA
Ki (PCP receptors): 96 ± 15 nM

c1csc(C2(N3CCCCC3)CCCCC2)c1 [TCP]
Stereotyped Behavior ED50 (rats): 56 (49-76) nmol/rat
Ki (PCP receptors): 20 ± 6 nM

CC1CCC(c2ccccc2)(N2CCCCC2)CC1 (stereo not drawn) [cis-N-(1-phenyl-4-methylcyclohexyl)piperidine]
Stereoselective effects over isomer counterpart in reducing the excitatory action of NMDA (NMDA [1]): confirmed

CNC1(c2ccccc2Cl)CCCCC1=O (stereo not drawn) [ketamine]
Reduction of the excitatory effects of NMDA as compared to KA and QUIS (NMDA [6]): reduce selectively the excitatory effects of NMDA

Source: patent US5604255A, “N-(1-thienylcycloalkyl)alkenylamines for treatment of neurotoxic injury” (priority 1994, dated 1997)
